Measured values from patent US20120196899A1, “METHODS AND PRODUCTS FOR TREATING INFLAMMATION” (Rock Creek Pharmaceuticals, Inc., priority 2010, published 2012).
Several values for one entry are separate records, joined by “and”; a condition that tells them apart may be missing. Equal values may be shown once.

Key:
Hematology, day 15 = format: in vivo, Sprague-Dawley rats
Description: On day 15, urine was collected on all surviving animals for urinalysis. The animals were euthanized and bled via cardiac puncture. Blood was collected for hematology, clinical chemistry, and coagulation analysis. Tissues were collected, weighed, and stored in 10% neutral-buffered formalin for possible future analysis.

[1] = test system: BACE-1 protein expression; assay: BACE-1 protein expression in SHSY cells (Western blot); format: cell-based, human; details: 24 hours, corrected for actin
[2] = Body weights, weight gain and food consumption over 14 days after single i.v. dose; format: in vivo, Sprague-Dawley rats; details: 0.1 mg/kg, individual rats
Protocol: Body weight and food consumption was measured daily for 14 days. On day 15, urine was collected on all surviving animals. The animals were euthanized and bled via cardiac puncture, and blood was collected for analysis. Tissues were collected, weighed, evaluated for gross abnormalities, and stored in 10% neutral-buffered formalin.
All animals were observed daily.

[3] = anatabine 0.75 mg/kg, individual animals C1-C10 (M, F)

Which MCH (Hematology, day 15; anatabine 0.1 mg/kg, individual animals B1-B10 (M, F)) does the source give for C1=CCC(c2cccnc2)NC1 (racemic) [Anatabine, 1,2,3,6-tetrahydro-[2,3′]bipyridinyl] here?
The MCH was 21.9 UUG and 21.8 UUG.

What about the MCH (Hematology, day 15; [3]) of the same compound?
The MCH was 20.3 UUG and 21 UUG and 22 UUG and 19.9 UUG.

What about the MCHC (Hematology, day 15; [3]) of the same compound?
The MCHC was 34.2% and 34.3%.

What about the EOSINOPHIL (Hematology, day 15; female, 0.1 mg/kg, group mean) of the same compound?
The EOSINOPHIL was 0.0%.

And the HCT (Hematology, day 15; female, 0.1 mg/kg, group mean)?
The HCT was 46.4%.

What about the LYMPHOCYTE (Hematology, day 15; female, 0.1 mg/kg, group mean) of the same compound?
The LYMPHOCYTE was 90.2%.

And the MCHC (Hematology, day 15; female, 0.1 mg/kg, group mean)?
Its MCHC is 33.7%.

What about the MCV (Hematology, day 15; female, 0.1 mg/kg, group mean) of the same compound?
The MCV was 60.0 fL.

And the MONOCYTE (Hematology, day 15; female, 0.1 mg/kg, group mean)?
Its MONOCYTE is 1.8%.

What about the “NEUTROPHIL SEG” value (Hematology, day 15; female, 0.1 mg/kg, group mean) of the same compound?
Its value is 8.0%.

And the “PLATELET COUNT” value (Hematology, day 15; female, 0.1 mg/kg, group mean)?
The value was 997300 µL⁻¹.

What about the RBC (Hematology, day 15; female, 0.1 mg/kg, group mean) of the same compound?
The RBC was 7.8e+06 µL⁻¹.

What about the “RETICULOCYTE COUNT” value (Hematology, day 15; female, 0.1 mg/kg, group mean) of the same compound?
Its value is 4.5%.

And the WBC (Hematology, day 15; female, 0.1 mg/kg, group mean)?
Its WBC is 9300 µL⁻¹.

What about the EOSINOPHIL (Hematology, day 15; female, 0.75 mg/kg, group mean) of the same compound?
Its EOSINOPHIL is 0.0%.

What about the HCT (Hematology, day 15; female, 0.75 mg/kg, group mean) of the same compound?
The HCT was 45.2%.

And the HGB (Hematology, day 15; female, 0.75 mg/kg, group mean)?
The HGB was 15.4 g/dL.

What about the LYMPHOCYTE (Hematology, day 15; female, 0.75 mg/kg, group mean) of the same compound?
The LYMPHOCYTE was 90.6%.

What about the MCV (Hematology, day 15; female, 0.75 mg/kg, group mean) of the same compound?
The MCV was 59.8 fL.

What about the MONOCYTE (Hematology, day 15; female, 0.75 mg/kg, group mean) of the same compound?
The MONOCYTE was 0.8%.

And the “NEUTROPHIL SEG” value (Hematology, day 15; female, 0.75 mg/kg, group mean)?
The value was 8.6%.

What about the “PLATELET COUNT” value (Hematology, day 15; female, 0.75 mg/kg, group mean) of the same compound?
The value was 1.2696e+06 µL⁻¹.

And the RBC (Hematology, day 15; female, 0.75 mg/kg, group mean)?
Its RBC is 7.5e+06 µL⁻¹.

And the “RETICULOCYTE COUNT” value (Hematology, day 15; female, 0.75 mg/kg, group mean)?
The value was 3.3%.

And the WBC (Hematology, day 15; female, 0.75 mg/kg, group mean)?
Its WBC is 10300 µL⁻¹.

And the “mean corpuscular volume (MCV) and mean corpuscular hemoglobin (MCH)” value (Hematology, day 15; females, anatabine […], nicotine 0.75 mg/kg single i.v.)?
The value was “small, but statistically significant decreases”.

And the EOSINOPHIL (Hematology, day 15; male, 0.1 mg/kg, group mean)?
Its EOSINOPHIL is 0.2%.

What about the HCT (Hematology, day 15; male, 0.1 mg/kg, group mean) of the same compound?
Its HCT is 47.1%.

And the HGB (Hematology, day 15; male, 0.1 mg/kg, group mean)?
The HGB was 15.8 g/dL.

What about the LYMPHOCYTE (Hematology, day 15; male, 0.1 mg/kg, group mean) of the same compound?
The LYMPHOCYTE was 89.2%.

What about the MCV (Hematology, day 15; male, 0.1 mg/kg, group mean) of the same compound?
The MCV was 63.4 fL.

And the MONOCYTE (Hematology, day 15; male, 0.1 mg/kg, group mean)?
Its MONOCYTE is 2.0%.

And the “NEUTROPHIL SEG” value (Hematology, day 15; male, 0.1 mg/kg, group mean)?
Its value is 8.6%.

What about the “PLATELET COUNT” value (Hematology, day 15; male, 0.1 mg/kg, group mean) of the same compound?
The value was 1.2486e+06 µL⁻¹.

And the RBC (Hematology, day 15; male, 0.1 mg/kg, group mean)?
Its RBC is 7.4e+06 µL⁻¹.

And the “RETICULOCYTE COUNT” value (Hematology, day 15; male, 0.1 mg/kg, group mean)?
The value was 5.5%.

What about the WBC (Hematology, day 15; male, 0.1 mg/kg, group mean) of the same compound?
The WBC was 15600 µL⁻¹.

And the EOSINOPHIL (Hematology, day 15; male, 0.75 mg/kg, group mean)?
The EOSINOPHIL was 0.0%.

What about the HCT (Hematology, day 15; male, 0.75 mg/kg, group mean) of the same compound?
The HCT was 45.8%.

What about the LYMPHOCYTE (Hematology, day 15; male, 0.75 mg/kg, group mean) of the same compound?
The LYMPHOCYTE was 88.8%.

And the MCHC (Hematology, day 15; male, 0.75 mg/kg, group mean)?
The MCHC was 34.0%.

And the MCV (Hematology, day 15; male, 0.75 mg/kg, group mean)?
Its MCV is 61.4 fL.

And the MONOCYTE (Hematology, day 15; male, 0.75 mg/kg, group mean)?
Its MONOCYTE is 1.4%.

And the “NEUTROPHIL SEG” value (Hematology, day 15; male, 0.75 mg/kg, group mean)?
Its value is 9.8%.

And the “PLATELET COUNT” value (Hematology, day 15; male, 0.75 mg/kg, group mean)?
Its value is 1.3258e+06 µL⁻¹.

And the RBC (Hematology, day 15; male, 0.75 mg/kg, group mean)?
The RBC was 7.5e+06 µL⁻¹.

And the “RETICULOCYTE COUNT” value (Hematology, day 15; male, 0.75 mg/kg, group mean)?
Its value is 4.4%.

What about the WBC (Hematology, day 15; male, 0.75 mg/kg, group mean) of the same compound?
Its WBC is 12100 µL⁻¹.

What about the BACE-1 protein expression [1] of the same compound?
The BACE-1 protein expression was “reduced BACE expression”.

And the “day 1 B.W.” value ([2]; F)?
Its value is 211.1 g and 201.0 g and 210.9 g.

What about the “day 2 B.W.” value ([2]; F) of the same compound?
Its value is 223.9 g and 215.1 g and 208.1 g and 208.8 g and 212.8 g.

And the “day 3 B.W.” value ([2]; F)?
Its value is 230.8 g and 213.2 g and 209.1 g (2×) and 219.3 g.

And the “day 4 B.W.” value ([2]; F)?
Its value is 242.3 g and 222.4 g and 220.7 g and 211.4 g and 224.7 g.

What about the “day 5 B.W.” value ([2]; F) of the same compound?
Its value is 246.9 g and 226.4 g and 219.3 g and 221.0 g and 229.5 g.

And the “day 6 B.W.” value ([2]; F)?
The value was 241.1 g and 235.5 g and 220.1 g and 218.8 g and 222.9 g.

And the “day 7 B.W.” value ([2]; F)?
The value was 246.5 g and 226.4 g and 221.7 g and 222.1 g and 232.1 g.

What about the “day 8 B.W.” value ([2]; F) of the same compound?
The value was 252.0 g and 232.0 g and 227.0 g and 235.0 g.

What about the “day 9 B.W.” value ([2]; F) of the same compound?
Its value is 255.1 g and 239.9 g and 224.1 g and 232.0 g.

What about the “day 11 B.W.” value ([2]; F) of the same compound?
Its value is 274.8 g and 238.5 g and 233.9 g and 245.6 g and 245.4 g.

What about the “day 12 B.W.” value ([2]; F) of the same compound?
Its value is 277.2 g and 246.3 g and 242.0 g and 240.0 g and 241.6 g.

What about the “day 13 B.W.” value ([2]; F) of the same compound?
Its value is 271.8 g and 241 g and 242.1 g.

What about the “day 14 B.W.” value ([2]; F) of the same compound?
Its value is 272.7 g and 248.5 g and 243.9 g and 255.6 g and 239.2 g.

What about the “day 1 B.W.” value ([2]; M) of the same compound?
Its value is 233.7 g and 235.0 g and 243.5 g and 239.9 g.

And the “day 2 B.W.” value ([2]; M)?
Its value is 257.0 g and 235.1 g and 231.0 g and 253.5 g and 247.3 g.

What about the “day 3 B.W.” value ([2]; M) of the same compound?
Its value is 270.0 g and 251.0 g and 252.0 g and 259.4 g.

And the “day 4 B.W.” value ([2]; M)?
Its value is 286.0 g and 270.0 g and 271.2 g and 280.5 g and 273.7 g.

What about the “day 5 B.W.” value ([2]; M) of the same compound?
Its value is 296.5 g and 273.8 g and 278.5 g and 288.3 g and 286.6 g.

What about the “day 6 B.W.” value ([2]; M) of the same compound?
The value was 301.8 g and 278 g and 284.3 g and 288.3 g and 219.6 g.
